Legend:
[1] = system: IGFBP7 expression in melanoma cell lines; assay: IGFBP7 mRNA (qRT-PCR) in melanoma cell lines after 5-aza treatment; assay type: cell-based, human; conditions: 10 μM, 48 hours
Method: Total RNA was isolated using TRIZOLTM (Invitrogen) 7 days after retroviral transduction and puromycin selection. Reverse transcription was performed using SuperScriptTM II Reverse Transcriptase (Invitrogen) as per the manufacturer's instructions, followed by quantitative real-time PCR using Platinum SYBRTM Green qPCR SuperMix-UDG with Rox (Invitrogen). Bisulfite modification was carried out essentially as described (Frommer et al., 1992, Proc. Natl. Acad. Sci. USA, 89:1827-31), except that hydroquinone was used at a concentration of 125 mM during bisulfite treatment (carried out in the dark) and DNA was desalted on […] columns (Qiagen) after the bisulfite reaction. Six clones were sequenced for each cell line or human tissue sample. For 5-aza-2'-deoxycytidine (5-aza) treatment, melanoma cell lines were treated with 10 μM 5-aza (Calbiochem) for 48 hours.

[2] = system: BRAF-MEK-ERK signaling in SK-MEL-28 cells; assay: Immunoblot analysis of BRAF-MEK-ERK signaling (phospho-ERK, activated MEK1/2, RKIP); assay type: cell-based, human; conditions: SK-MEL-28 cells, 24 hours; PD98054 20 or 40 μM, GW5074 5 or 10 nM
Method: (§1) To prepare cell extracts, cells were lysed in Laemmli buffer; for phospho-proteins, cells were lysed in the presence of a phosphatase inhibitor cocktail (Sigma). To prepare conditioned media, cells were grown in Opti-MEM™ (Invitrogen) for 24 hours, and media was harvested and concentrated using Centricon™ plus 20 tubes (Millipore). Conditioned media was normalized to cell number prior to loading the gel. For the experiments shown in FIGS. 3D and 4C, rIGFBP7 was added to the culture medium at a concentration of 10 μg/ml. For the MEK/RAF inhibitor experiment of FIG. 4D, SK-MEL-28 cells were treated with 2 μg/ml or 10 μg/ml rIGFBP7, 20 μM or 40 μM of the MEK inhibitor PD98054 (Calbiochem), or 5 nM or 10 nM the RAF inhibitor GW5074 (Sigma) for 24 hours prior to harvesting cells. Proteins were resolved by SDS-PAGE and transferred to nitrocellulose. Blots were probed with the following antibodies: α-p16 (Abcam), α-acetylated H3K9 (Upstate), α-IGFBP7 (Santa Cruz), α-SMARCB1 (Abnova), α-BNIP3L (Proscience), α-BRAFV600E (Santa Cruz), α-cleaved caspase-3 p11 (Santa Cruz), α-β-actin (Sigma), α-phospho-ERK (Cell Signaling) or α-ERK (Cell Signaling).
To test this idea, rIGFBP7 was added to BRAFV600E-positive SK-MEL-28 melanoma cells, and the levels of total and activated ERK (phospho-ERK) were analyzed.

SK-MEL-28 cells = assay: Immunoblot analysis of SMARCB1, BNIP3L and activated caspase 3; assay type: cell-based, human; conditions: 24 hours, unlike rIGFBP7
Method: as §1

[3] = system: NCI 60 panel of human cancer cell lines; assay: Growth inhibition of the NCI 60 panel cell lines by MEK inhibitor; assay type: cell-based
Method: The growth dependence of the above cell lines on the Ras-BRAF-MEK-Erk signaling pathway was also determined. 1.5×10^5 cells of each cell line were treated with 20 μM of the MEK inhibitor U0216 (Cell Signaling) for 24 hours, and growth of the cell lines was determined. U0216 inhibited growth in 11/11 (100%) of the cell lines that contained a BRAF mutation and 11/13 (84.6) of the cell lines that contained a RAS mutation. The one cell line that contained both a BRAF and a RAS mutation was susceptible to growth inhibition by U0216.

`Nc1ncn([C@H]2C[C@H](O)[C@@H](CO)O2)c(=O)n1` [5-aza-2′-deoxycytidine] was tested. Which IGFBP7 expression ([1]; BRAF/RAS-wild type cell lines) did it give?
Its IGFBP7 expression is “no effect”.

And the IGFBP7 expression ([1]; BRAFV600E- and NRASQ61R-positive cell lines)?
The IGFBP7 expression was “restored IGFBP7 expression”.

With `O=C1Nc2ccc(I)cc2/C1=C/c1cc(Br)c(O)c(Br)c1` [RAF inhibitor, reference compound] as the compound, how does the BRAF-MEK-ERK signaling [2] read?
Its BRAF-MEK-ERK signaling is “blocked BRAF-MEK-ERK signaling”.

What about the “BNIP3L levels and induction of apoptosis” value (SK-MEL-28 cells) of the same compound?
Its value is “did not increase BINP3L levels or efficiently induce apoptosis”.

Which results are given for `N#CC(=C(/N)Sc1ccccc1N)/C(C#N)=C(/N)Sc1ccccc1N` [U0216]?
cell lines in which growth was inhibited ([3]; cell lines that contained a BRAF mutation (11/11), 20 μM, 24 hours): 100%; cell lines in which growth was inhibited ([3]; cell lines that contained a RAS mutation (11/13), 20 μM, 24 hours): 84.6; cell lines susceptible to growth inhibition ([3]; cell lines without a BRAF or RAS mutation, 20 μM, 24 hours): 0/34; susceptibility to growth inhibition ([3]; one cell line with both a BRAF and a RAS mutation): susceptible

— patent US9248163B2, “Insulin-like growth factor binding protein 7 for treatment of cancer” (University of Massachusetts, priority 2007, dated 2016)
